Source: BindingDB's records for doi:10.1016/s0960-894x(99)00042-6 (1999)

Assay: Inhibitory activity against beta-glucosidase of sweet almond

In the case of `C[C@@H]1NC[C@@H](CO)[C@@H](O)[C@@H]1O` [5-Hydroxymethyl-2-methyl-piperidine-3,4-diol], the Ki is reported as 2100 nM.
